The subject of the test is CEM cells HIV-1 protection, formazan growth assay. Description: NCI AIDS Antiviral Assay. Conditions: for IC50: measured here: growth of uninfected CEM cells. An outline of the steps:
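Protection of CEM cells against HIV-1 measured as cell growth via soluble formazan read-out, with five concentrations tested on both infected and uninfected cells; failure to protect may reflect toxicity.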

The source made the active and inactive calls.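 Rule for the calls: active = compounds giving half or more protection of infected cells from virus-caused growth loss, again on retest; inactive = the rest.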

For `CN1C(=O)C2(Cc3cn(C45CC67SSC(CO)(C(=O)N6C4Nc4ccccc45)N(C)C7=O)c4ccccc34)SSC1(CO)C(=O)N2C` (configuration not stated), the EC50 was > 0.2 µM and the IC50 amounted to 0.00661 µM.

With `COC(=O)C1C(C(=O)OC)C2(OC)c3ccccc3-c3ccccc3C12` (configuration not stated), the EC50 is > 200 µM and the IC50 stood at 21.4 µM.

Take `CSc1n[nH]c(=O)c2nc[nH]c12`: the EC50 was > 245 µM and the IC50 was > 245 µM.

Consider `c1ccc2c(c1)c1ccccc1c1nccnc21`, for which the EC50 was > 200 µM and the IC50 was determined as 69.2 µM.

Turning to `COc1ccc(CNc2nc3c(NC(C)=O)cc(C(F)(F)F)cc3nc2-c2ccccc2)cc1OC`, the EC50 is > 10.5 µM and the IC50 is > 10.5 µM.

Turning to `CC(=O)[CH-]C(C)=O.CC(=O)[CH-]C(C)=O.CCCNCCN.[Cr+5].[O-][Cl+3]([O-])([O-])[O-]`, the EC50 was > 200 µM and the IC50 is > 200 µM.

Regarding `CCC1CCC2CCCC(C)N12` (configuration not stated), the EC50 was > 1480 µM and the IC50 was > 1480 µM.

Consider `CC1(C)OC(=O)N(c2ccccc2)C12C=Cc1cc([N+](=O)[O-])cc([N+](=O)[O-])c1O2` (configuration not stated), for which the EC50 was > 200 µM and the IC50 came to 117 µM.

Turning to `CCc1cn(C2CC(CO)C(CO)S2)c(=O)[nH]c1=O` (configuration not stated), the EC50 was > 200 µM and the 50% inhibitory concentration (IC50) is > 200 µM.

As for `CCOC(=O)C(=O)Nc1c(N(CC)CC)n2ccccc2nc1=O`, the EC50 was > 676 µM and the IC50 was > 676 µM.

For `O=[N+]([O-])c1cccc([N+](=O)[O-])c1Cl`, the EC50 is > 200 µM and the IC50 came to 16.6 µM.

Regarding `CC1CCCC(C(=O)/C(=C/c2cccc(Cl)c2)C(=O)C(=O)O)C1` (configuration not stated), the EC50 is > 15.5 µM and the IC50 is > 15.5 µM.

On to `O=C(/C=C/c1ccccc1)Oc1ccc(C(=O)/C=C/c2ccc(Cl)cc2)cc1`, for which the EC50 was > 100 µM and the 50% inhibitory concentration (IC50) was determined as 44.7 µM.

For `COc1ccc2c(c1)[nH]c1c(C)c3ccncc3c(C)c12`, the EC50 is > 200 µM and the IC50 is 0.112 µM.

Take `O=C(COc1ccccc1Cl)N1N=C(c2ccc(Cl)cc2)CC1(O)c1ccccc1` (configuration not stated): the EC50 was > 4.57 µM and the IC50 was > 4.57 µM.

For `CCCN=C(NC(=O)c1ccc(Cl)cc1)SC`, the EC50 is > 200 µM and the IC50 was > 200 µM.

Turning to `O=c1oc2c(-c3ccccc3)cccc2c(O)c1-c1ccccc1`, the EC50 was > 200 µM and the IC50 worked out at 85.1 µM.

As for `CN(C)c1ccc(/C=C(\C#N)c2cccc(I)c2)cc1`, the EC50 was > 2 µM and the IC50 came to 0.129 µM.

For `Cc1ccc(S(=O)(=O)OC2C(C)OCOC3COCOC32)cc1` (configuration not stated), the EC50 is > 145 µM and the IC50 is > 145 µM.

On to `CN1COc2ccc(Br)cc2C1`, for which the outcome was inactive.

Consider `Cc1cc(=O)oc2c3c(cc(OCc4ccccc4)c12)OC(C)(C)[C@H](OC(=O)C12CCC(C)(C(=O)O1)C2(C)C)[C@@H]3OC(=O)C12CCC(C)(C(=O)O1)C2(C)C` (some centres not stated), for which the EC50 is > 200 µM and the IC50 was found to be 44.7 µM.

Consider `Cn1c(=O)c2nc3c(=O)n(C)c(=O)n(C)c3nc2n(C)c1=O`, for which the EC50 was > 200 µM and the IC50 worked out at 79.4 µM.

For the molecule `NC1=NCC(c2ccc(Cl)cc2)O1` (configuration not stated), the EC50 was > 200 µM and the IC50 was determined as 50.1 µM.

`CCOC(=O)/C(=C\c1ccc(C(F)(F)F)cc1)[Se]c1ccccc1`: the EC50 is > 18.2 µM and the IC50 was > 18.2 µM.

As for `CCC1C(=O)OCc2c1cc1n(c2=O)CCC12OCCO2` (configuration not stated), the EC50 was > 851 µM and the IC50 was > 851 µM.

`CN(N)c1cn[nH]c(=O)c1Cl`: the EC50 is > 200 µM and the IC50 is > 200 µM.

Regarding `CCN(CCCN(CC)C(=O)Nc1ccccc1)C(=O)Nc1ccccc1`, the EC50 was > 200 µM and the IC50 was 155 µM.

For `Cc1cccc(C(C)C)c1N1C(=O)C(=O)C(c2nc3ccccc3o2)C(=O)C1=O`, the EC50 was > 13.5 µM and the IC50 was > 13.5 µM.

As to `CC1=Nc2ccc(C)cc2N=C(C)C1`, the EC50 is > 200 µM and the IC50 is > 200 µM.

(Values after PubChem BioAssay AID179 (DTP/NCI, 2004).)
